Assay results from patent EP2490021A1, “Modulators of PRR and GPCR signalling” (Biotempt B.V., priority 2011, dated 2012).
Entries after “also recorded” stand apart in the source; their conditions may differ. Where a SMILES comes first, the peptide text is derived from it.

Tests used:
Format in all cases: cell-based, human
neutrophils [1] = test: Phosphoprotein array, LPS-stimulated neutrophils; settings: 1 µg/mL LPS, pre-stimulated with 20 ng/mL
Protocol: (§1) Blood was drawn from healthy volunteers into tubes containing citrate as an anticoagulant. Neutrophils were isolated by using a Polymorphprep kit (Nicomed, Oslo, Norway) according to the manufacturer's instructions; monocytes were purified with magnetic beads (Miltenyi Biotech). The purity of the cells, as assessed by flow cytometry (anti-CD45, 14, DR, and CD66b), was > 93%. For each cell type, samples from two different donors were examined.
(§2) 5x10^6 cells were incubated in the presence of 1 µg/mL LPS (E.coli O111:B4, Sigma-Aldrich) or pre-stimulated with 20 ng/mL of EA-230 (peptide AQGV) and then incubated in the presence of 1 µg/mL LPS for 0, 5, 15 and 30 minutes (37°C, 5% CO2). At the end of the incubation period, the cells were put on ice, and proteins were extracted using Phosphosafe reagent (Novagen), according to the recommendations of the manufacturer. The total protein concentration was measured using a conventional Lowry assay (Pierce).
(§3) To determine the relative levels of protein phosphorylation, a human PhosphoKinase array (RnD Systems) was used according to the recommendations of the manufacturer. 200 µg of protein were used per array. Spot pixel density was determined for each protein and ratios to the controls (no LPS and no EA stimulation) were measured.

monocytes = test: Phosphoprotein array, LPS-stimulated monocytes; settings: 1 µg/mL LPS, pre-incubation with 20 ng/mL
Protocol: as §1, §2, §3

NF-kB = NF-kB p50 and p65 subunit activity ELISA, LPS-stimulated neutrophils; settings: 1 µg/mL LPS 15 minutes, both concentrations, p=0.03 vs LPS alone
Protocol: (§4) Blood was drawn from 2 healthy volunteers into tubes containing citrate as an anticoagulant. Neutrophils were isolated by using a Polymorphprep kit (Nicomed, Oslo, Norway) according to the manufacturer's instructions. The purity of the cells, as assessed by flow cytometry (anti-CD45, 14, DR, and CD66b), was > 93%.
[…] At the end of the incubation period, the cells were put on ice, and nuclear proteins were extracted using Nuclear Extraction Kit (Cayman chemicals, Ann Harbor, USA), according to the recommendations of the manufacturer. The total protein concentration was measured using a conventional Lowry assay (Pierce).
P50 and p65 NF-kB subunit activity was determined by ELISA (Cayman chemicals). This assay allows the determination of the true NF-kB activity by measuring the binding of its subunits to specific consensus sequences. This assay is similar to the traditional EMSA, though more sensitive. 10 µg of proteins were used per assay. Analysis was performed in duplicate.

neutrophils [2] = test: LPS-driven cytokine production by neutrophils; settings: 1 µg/mL LPS 24 hours, both concentrations (20 or 50 ng/mL), p=0.01 versus LPS
Protocol: as §4
5x10^5 cells were incubated in the presence of 1 µg/mL LPS (E.coli O111:B4, Sigma-Aldrich) or pre-stimulated with 20 or 50 ng/mL of EA-230 (peptide AQGV) and then incubated in the presence of 1 µg/mL LPS for 24 hours (37°C, 5% CO2). At the end of the incubation period, supernatants were harvested and concentrations of TNF-α, IL-6, and IL-8 were measured by flow cytometry using Bender Flowcytomics kit (Bender Med systems, Burlingame, USA) according to the recommendations of the manufacturer. Concentrations of IL-10 were determined by ELISA (RnD Systems). Measurements were done in duplicate.

TLR-4 [3] = test: Kinase phosphorylation in PBMC-derived monocytes challenged with TLR-4 ligand LPS; settings: 2 µg/ml LPS, at 20 ng/ml and at 50 ng/ml
Protocol: (§5) PMBC-derived monocytes were isolated from healthy volunteers (hPBMCs) according to routine procedures^1. […]
(§6) Following stimulation, the phosphorylation status of p38MAPK, JNK, PKB, and P42/p44MAPK/ERK1,2 was analysed^3. Results were corrected for differences using co-measurement of β-actin^4.

NOD = test: Kinase phosphorylation in PBMC-derived monocytes challenged with NOD ligand peptidoglycan; settings: 2 µg/ml PGN, at 50 ng/ml
Protocol: as §5, §6

FPR = test: Kinase phosphorylation in PBMC-derived monocytes challenged with fMLP; settings: 1 µM fmlp, at both 20 ng/ml and 50 ng/ml
Protocol: PMBC-derived monocytes were isolated from healthy volunteers (hPBMCs) according to routine procedures^1. Subsequently PMBC were incubated with 20 ng/ml peptide AQGV (Biotempt peptide, which was freshly prepared as a 20 mg/ml stock solution in bidistilled water) or treated with the cell culture medium alone for 10 min. hPMBC were challenged with: • 1) 2 µg/ml TLR-4 ligand LPS ^2 for 1 min, 5 min, 10 min and 20 min, • 2) 2 µg/ml NOD ligand peptidoglycan (PGN) for 1 min, 5 min, 10 min and 20 min, or • 3) 1 µM fmlp (formyl-Met-Leu-Phe) for 1 min, 5 min, 10 min and 20 min.
as §6

TLR-4 [4] = test: PKB phosphorylation in hPBMC challenged with LPS (Example 4); settings: 2 µg/ml LPS
Protocol: (§7) Subsequently PMBC were incubated with 1.3, 3.2, 8, 20 and 50 ng/ml peptide AQGV , LQGV, AQG, LQG, QGV, AQ, LQ, GV or QG (peptide, which was freshly prepared as a 20 mg/ml stock solution in bidistilled water) or treated with the cell culture medium alone for 10 min.
(§8) hPMBC were challenged with 2 µg/ml TLR-4 ligand LPS for 1 min, 5 min, 10 min and 20 min.

TLR-4 [5] = test: p38 MAPK phosphorylation in hPBMC challenged with LPS (Example 4); settings: 2 µg/ml LPS; for p38 MAPK phosphorylation: low concentrations of peptide, compared to control (LPS stimulated, no peptide added); for TLR-4 mediated signalling induced by LPS, p38 MAPK phosphorylation status: peptide at 20 ng/ml
Protocol: as §7, §8

[6] = low concentrations, i.e. below 20 ng/ml, compared to control (LPS stimulated, no peptide added)

CC(C)[C@H](NC(=O)CNC(=O)[C@H](CCC(N)=O)NC(=O)[C@H](C)N)C(=O)O [AQGV] (H-AQGV-OH)
eNOS phosphorylation (neutrophils [1]): increase | LPS-driven phosphorylation of CREB (neutrophils [1]; at 15 minutes): blunted | LPS-driven phosphorylation of ERK1/2 (neutrophils [1]; at 15 minutes): blunted | LPS-driven phosphorylation of GSK 3a/b (neutrophils [1]; at 15 minutes): blunted | LPS-driven phosphorylation of MEK1/2 (neutrophils [1]; at 15 minutes): blunted | LPS-driven phosphorylation of P38 MAPK (neutrophils [1]; at 15 minutes): blunted | eNOS phosphorylation (monocytes): strongly stimulated | LPS-driven phosphorylation of AMPK (monocytes; at 15 minutes): prevented this effect | LPS-driven phosphorylation of ERK1/2 (monocytes; at 15 minutes): prevented this effect | LPS-driven phosphorylation of JNK (monocytes; at 15 minutes): prevented this effect | LPS-driven phosphorylation of MSK (monocytes; at 15 minutes): prevented this effect | LPS-driven phosphorylation of P38 MAPK (monocytes; at 15 minutes): prevented this effect | LPS-driven phosphorylation of PKB/AKT (monocytes; at 15 minutes): prevented this effect | LPS induced NF-kB p50 activity (NF-kB): reduced this LPS induced activation | LPS induced NF-kB p65 activity (NF-kB): reduced this LPS induced activation | LPS induced production of IL-6 (neutrophils [2]): reduced the cytokine production almost to control values | LPS induced production of IL-8 (neutrophils [2]): reduced the cytokine production almost to control values | LPS induced production of IL-10 (neutrophils [2]): reduced the cytokine production almost to control values | LPS induced production of TNF-α (neutrophils [2]): reduced the cytokine production almost to control values | TLR-4 mediated signalling induced by LPS, JNK phosphorylation status (TLR-4 [3]): reduced | TLR-4 mediated signalling induced by LPS, P42/p44MAPK/ERK1,2 phosphorylation status (TLR-4 [3]): reduced | TLR-4 mediated signalling induced by LPS, PKB phosphorylation status (TLR-4 [3]): reduced | TLR-4 mediated signalling induced by LPS, p38MAPK phosphorylation status (TLR-4 [3]): reduced | NOD-signalling induced by peptidoglycan, JNK phosphorylation status (NOD): seemingly stimulates | NOD-signalling induced by peptidoglycan, P42/p44MAPK/ERK1,2 phosphorylation status (NOD): seemingly stimulates | NOD-signalling induced by peptidoglycan, PKB phosphorylation status (NOD): seemingly stimulates | NOD-signalling induced by peptidoglycan, p38MAPK phosphorylation status (NOD): seemingly stimulates | FPR signalling induced by fMLP (FPR): slightly attenuated | FPR signalling induced by fMLP, PKB phosphorylation (FPR): induction of PKB phosphorylation was initially seen, followed by downregulation | FPR signalling induced by fMLP, p38MAPK phosphorylation (FPR): downregulation | TLR-4 mediated signalling induced by LPS, PKB phosphorylation status (TLR-4 [4]; [6]): already display a modulation | TLR-4 mediated signalling induced by LPS, PKB phosphorylation status (TLR-4 [4]; peptide at 20 ng/ml): reduced | p38 MAPK phosphorylation (TLR-4 [5]): already modulated | TLR-4 mediated signalling induced by LPS, p38 MAPK phosphorylation status (TLR-4 [5]): initial downregulation

C[C@H](N)C(=O)N[C@@H](CCC(N)=O)C(=O)O [AQ] (H-Ala-Gln-OH)
TLR-4 mediated signalling induced by LPS, PKB phosphorylation status (TLR-4 [4]; [6]): already display a modulation | TLR-4 mediated signalling induced by LPS, PKB phosphorylation status (TLR-4 [4]; peptide at 20 ng/ml): inhibited | p38 MAPK phosphorylation (TLR-4 [5]): already modulated | TLR-4 mediated signalling induced by LPS, p38 MAPK phosphorylation status (TLR-4 [5]): slight overall downregulation

CC(C)C[C@H](N)C(=O)N[C@@H](CCC(N)=O)C(=O)NCC(=O)N[C@H](C(=O)O)C(C)C [LQGV] (H-LQGV-OH)
TLR-4 mediated signalling induced by LPS, PKB phosphorylation status (TLR-4 [4]; peptide at 20 ng/ml): reduced; also recorded: significantly downregulated | p38 MAPK phosphorylation (TLR-4 [5]): already modulated | TLR-4 mediated signalling induced by LPS, p38 MAPK phosphorylation status (TLR-4 [5]): initial downregulation

CC(C)C[C@H](N)C(=O)N[C@@H](CCC(N)=O)C(=O)NCC(=O)O [LQG] (H-Leu-Gln-Gly-OH)
p38 MAPK phosphorylation (TLR-4 [5]): already modulated | TLR-4 mediated signalling induced by LPS, p38 MAPK phosphorylation status (TLR-4 [5]): initial downregulation

CC(C)C[C@H](N)C(=O)N[C@@H](CCC(N)=O)C(=O)O [LQ] (H-Leu-Gln-OH)
TLR-4 mediated signalling induced by LPS, PKB phosphorylation status (TLR-4 [4]; [6]): already display a modulation | TLR-4 mediated signalling induced by LPS, PKB phosphorylation status (TLR-4 [4]; peptide at 20 ng/ml): inhibited

CC(C)[C@H](NC(=O)CNC(=O)[C@@H](N)CCC(N)=O)C(=O)O [QGV] (H-Gln-Gly-Val-OH)
TLR-4 mediated signalling induced by LPS, PKB phosphorylation status (TLR-4 [4]; [6]): already display a modulation | TLR-4 mediated signalling induced by LPS, PKB phosphorylation status (TLR-4 [4]; peptide at 20 ng/ml): at least initial, inhibition | p38 MAPK phosphorylation (TLR-4 [5]): already modulated

NC(=O)CC[C@H](N)C(=O)NCC(=O)O [QG] (H-Gln-Gly-OH)
p38 MAPK phosphorylation (TLR-4 [5]): already modulated | TLR-4 mediated signalling induced by LPS, p38 MAPK phosphorylation status (TLR-4 [5]): slight upregulation
